Reference: patent US10023564B2, “G protein-coupled receptor kinase 2 inhibitors and methods for use of the same” (THE REGENTS OF THE UNIVERSITY OF MICHIGAN, priority 2014, dated 2018)

Target: ROCK1 (Homo sapiens (Human), UniProt Q13464)
Assay: Rho-associated coiled-coil kinase (ROCK) assay, ADP-Glo system
Type: biochemical
Details: 0.1 μg ROCK1, 1 μg S6K substrate, 100 μM ATP, 60 min
Experimental: Rho-associated coiled-coil kinase (ROCK) assays were performed with the ADP-Glo system using 0.1 μg ROCK1 and 1 μg S6K substrate, and 100 μM ATP for 60 min prior to addition of ADP-GLO Reagent, and allowed to incubate for an additional 40 min prior to the addition of the Kinase Detection Reagent and imaging on a PHERASTAR system.

Chain of ROCK1 (Q13464 whole entry, species assumed): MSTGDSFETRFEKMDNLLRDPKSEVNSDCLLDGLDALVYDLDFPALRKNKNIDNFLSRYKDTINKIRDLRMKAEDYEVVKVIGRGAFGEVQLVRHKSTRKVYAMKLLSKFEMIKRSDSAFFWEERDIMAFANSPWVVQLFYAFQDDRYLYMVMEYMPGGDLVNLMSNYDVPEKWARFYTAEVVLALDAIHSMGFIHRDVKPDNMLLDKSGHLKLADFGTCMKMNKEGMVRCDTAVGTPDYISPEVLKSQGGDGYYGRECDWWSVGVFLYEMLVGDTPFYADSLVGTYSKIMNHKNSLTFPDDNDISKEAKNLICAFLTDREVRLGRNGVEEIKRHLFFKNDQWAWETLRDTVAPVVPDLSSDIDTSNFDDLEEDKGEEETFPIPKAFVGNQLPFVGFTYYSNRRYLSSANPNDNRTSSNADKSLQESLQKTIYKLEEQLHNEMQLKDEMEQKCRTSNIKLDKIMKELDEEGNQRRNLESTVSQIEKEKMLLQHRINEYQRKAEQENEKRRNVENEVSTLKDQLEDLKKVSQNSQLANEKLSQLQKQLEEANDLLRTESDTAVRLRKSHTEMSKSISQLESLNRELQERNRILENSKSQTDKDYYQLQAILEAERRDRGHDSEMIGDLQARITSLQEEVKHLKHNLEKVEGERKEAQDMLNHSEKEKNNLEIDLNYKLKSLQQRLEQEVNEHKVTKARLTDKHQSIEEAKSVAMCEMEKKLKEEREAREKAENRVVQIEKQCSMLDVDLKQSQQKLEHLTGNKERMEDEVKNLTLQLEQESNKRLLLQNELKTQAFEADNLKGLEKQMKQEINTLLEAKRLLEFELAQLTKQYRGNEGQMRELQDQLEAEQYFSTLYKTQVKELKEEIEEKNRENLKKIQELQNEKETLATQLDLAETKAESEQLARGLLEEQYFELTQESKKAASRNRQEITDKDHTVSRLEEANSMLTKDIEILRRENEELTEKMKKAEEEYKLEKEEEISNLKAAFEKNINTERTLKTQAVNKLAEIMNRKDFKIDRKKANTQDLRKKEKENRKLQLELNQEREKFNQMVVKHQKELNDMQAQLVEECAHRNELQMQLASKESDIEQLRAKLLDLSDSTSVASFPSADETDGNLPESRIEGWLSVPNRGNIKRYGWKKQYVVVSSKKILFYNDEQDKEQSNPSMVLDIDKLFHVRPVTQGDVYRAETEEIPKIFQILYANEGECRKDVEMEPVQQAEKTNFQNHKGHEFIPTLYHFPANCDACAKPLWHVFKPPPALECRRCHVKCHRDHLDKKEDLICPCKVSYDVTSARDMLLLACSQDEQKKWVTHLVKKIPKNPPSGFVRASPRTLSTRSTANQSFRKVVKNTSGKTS

For `CC1=C(C(=O)Nc2ccc3[nH]ncc3c2)C(c2ccc(F)c(C(=O)NCc3nccc4ccccc34)c2)NC(=O)N1` (stereo not shown) [Example E08, 4-(4-fluoro-3-((isoquinolin-1-ylmethyl)carbamoyl)phenyl)-N-(1H-indazol-5-yl)-6-methyl-2-oxo-1,2,3,4-tetrahydropyrimidine-5-carboxamide], which IC50 is on record?
Its IC50 is 17 nM.

For `CC1=C(C(=O)Nc2ccc3[nH]ncc3c2)C(c2ccc(F)c(C(=O)NCc3c(F)cccc3F)c2)NC(=O)N1` (stereo not shown) [Example E02, 4-(3-((2,6-difluorobenzyl)carbamoyl)-4-fluorophenyl)-N-(1H-indazol-5-yl)-6-methyl-2-oxo-1,2,3,4-tetrahydropyrimidine-5-carboxamide], which IC50 is on record?
The IC50 was 61 nM.

Target: T1, GRK2 (Homo sapiens (Human), UniProt P25098)
Assay: not given
Details: literature (Setyawan et al. 1999; Tesmer et al. 2010); cited from earlier work

T1 sequence (P25098 whole entry, species assumed): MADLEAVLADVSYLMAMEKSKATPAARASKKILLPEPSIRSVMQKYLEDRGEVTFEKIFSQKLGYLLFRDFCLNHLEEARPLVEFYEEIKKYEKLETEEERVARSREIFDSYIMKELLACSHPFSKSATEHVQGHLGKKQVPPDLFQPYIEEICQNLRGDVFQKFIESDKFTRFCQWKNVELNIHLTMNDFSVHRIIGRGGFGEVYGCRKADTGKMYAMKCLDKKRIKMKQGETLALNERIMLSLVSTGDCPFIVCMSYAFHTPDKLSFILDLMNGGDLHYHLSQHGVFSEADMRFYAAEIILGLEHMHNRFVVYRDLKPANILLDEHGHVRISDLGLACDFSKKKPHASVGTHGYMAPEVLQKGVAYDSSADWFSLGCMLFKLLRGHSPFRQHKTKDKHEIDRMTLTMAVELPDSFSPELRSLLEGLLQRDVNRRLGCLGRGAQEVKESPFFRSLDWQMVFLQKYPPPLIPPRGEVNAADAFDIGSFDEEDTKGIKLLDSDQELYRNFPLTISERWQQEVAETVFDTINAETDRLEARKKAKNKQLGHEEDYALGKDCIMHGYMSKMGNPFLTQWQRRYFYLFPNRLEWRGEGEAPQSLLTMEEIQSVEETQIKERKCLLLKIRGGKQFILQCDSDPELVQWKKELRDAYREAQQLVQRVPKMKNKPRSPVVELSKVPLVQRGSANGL

Which GRK2 inhibition potency does the source give for `O=C(N[C@@H]1CNCCC[C@H]1OC(=O)c1cc(O)c(C(=O)c2c(O)cccc2C(=O)O)c(O)c1)c1ccc(O)cc1` [balanol] here?
The GRK2 inhibition potency was “low nanomolar range”.

Target: T1, GRK2
Assay: GRK2 kinetic assay (phosphorylation of bROS or tubulin, phosphorimaging)
Type: biochemical
Details: 50 nM GRK, 5 μM ATP, 5 min reaction
Experimental: The low salt concentration and DDM were used to maximize GRK activity and disrupt small molecule aggregates from forming, respectively. […] Data was analyzed and inhibition curves were fit via GraphPad Prism.

Which IC50 does the source give for `CC1=C(C(=O)Nc2ccc3[nH]ncc3c2)C(c2ccc(F)c(C(=O)NCc3nccc4ccccc34)c2)NC(=O)N1` (stereo not shown) [Example E08, 4-(4-fluoro-3-((isoquinolin-1-ylmethyl)carbamoyl)phenyl)-N-(1H-indazol-5-yl)-6-methyl-2-oxo-1,2,3,4-tetrahydropyrimidine-5-carboxamide] here?
The IC50 was 2600 nM.

For `CC1=C(C(=O)Nc2ccc3[nH]ncc3c2)C(c2ccc(F)c(CCC(=O)NCc3ncc(C)o3)c2)NC(=O)N1` (stereo not shown) [Example E37, 4-(4-fluoro-3-(3-(((5-methyloxazol-2-yl)methyl)amino)-3-oxopropyl)phenyl)-N-(1H-indazol-5-yl)-6-methyl-2-oxo-1,2,3,4-tetrahydropyrimidine-5-carboxamide], which IC50 is on record?
The IC50 was 4000 nM.

Which IC50 does the source give for `CC1=C(C(=O)Nc2ccc3[nH]ncc3c2)C(c2ccc(F)c(CC(=O)NCC3CCN(C4CC4)CC3)c2)NC(=O)N1` (stereo not shown) [Example E33, 4-(3-(2-(((1-cyclopropylpiperidin-4-yl)methyl)amino)-2-oxoethyl)-4-fluorophenyl)-N-(1H-indazol-5-yl)-6-methyl-2-oxo-1,2,3,4-tetrahydropyrimidine-5-carboxamide] here?
The IC50 was 680 nM.

For `CCC(C)N(C)C(=O)c1cc(C2NC(=O)NC(C)=C2C(=O)Nc2ccc3[nH]ncc3c2)ccc1F` (stereo not shown) [Example E19, 4-(3-(sec-butyl(methyl)carbamoyl)-4-fluorophenyl)-N-(1H-indazol-5-yl)-6-methyl-2-oxo-1,2,3,4-tetrahydropyrimidine-5-carboxamide], which IC50 is on record?
Its IC50 is 51000 nM.

With `CC1=C(C(=O)Nc2ccc3[nH]ncc3c2)C(c2ccc(F)c(C(=O)N(C)Cc3cc(C)[nH]n3)c2)NC(=O)N1` (stereo not shown) [Example E26, 4-(4-fluoro-3-(methyl((5-methyl-1H-pyrazol-3-yl)methyl)carbamoyl)phenyl)-N-(1H-indazol-5-yl)-6-methyl-2-oxo-1,2,3,4-tetrahydropyrimidine-5-carboxamide] as the molecule, how does the IC50 read?
The IC50 was 1200 nM.

Which IC50 does the source give for `CC1=C(C(=O)Nc2ccc3[nH]ncc3c2)C(c2ccc(F)c(C(=O)NCC(C)N3CCCCCC3)c2)NC(=O)N1` (stereo not shown) [Example E20, 4-(3-((2-(azepan-1-yl)propyl)carbamoyl)-4-fluorophenyl)-N-(1H-indazol-5-yl)-6-methyl-2-oxo-1,2,3,4-tetrahydropyrimidine-5-carboxamide] here?
The IC50 was 740 nM.

Which IC50 does the source give for `CC1=C(C(=O)Nc2ccc3[nH]ncc3c2)C(c2ccc(F)c(CC(=O)N(C)Cc3nc(C)c[nH]3)c2)NC(=O)N1` (stereo not shown) [Example E34, 4-(4-fluoro-3-(2-(methyl((4-methyl-1H-imidazol-2-yl)methyl)amino)-2-oxoethyl)phenyl)-N-(1H-indazol-5-yl)-6-methyl-2-oxo-1,2,3,4-tetrahydropyrimidine-5-carboxamide] here?
Its IC50 is 1200 nM.

With `CC1=C(C(=O)Nc2ccc3[nH]ncc3c2)C(c2ccc(F)c(C(=O)NC3CC4CCC3(C)C4(C)C)c2)NC(=O)N1` (stereo not shown) [Example E25, 4-(4-fluoro-3-((1,7,7-trimethylbicyclo[2.2.1]heptan-2-yl)carbamoyl)phenyl)-N-(1H-indazol-5-yl)-6-methyl-2-oxo-1,2,3,4-tetrahydropyrimidine-5-carboxamide] as the molecule, how does the IC50 read?
Its IC50 is 5200 nM.

With `COC(=O)C1(NC(=O)c2cc(C3NC(=O)NC(C)=C3C(=O)Nc3ccc4[nH]ncc4c3)ccc2F)CCCCC1` (stereo not shown) [Example E23, methyl 1-(5-(5-((1H-indazol-5-yl)carbamoyl)-6-methyl-2-oxo-1,2,3,4-tetrahydropyrimidin-4-yl)-2-fluorobenzamido)cyclohexanecarboxylate] as the molecule, how does the IC50 read?
The IC50 was 820 nM.

With `CC1=C(C(=O)Nc2ccc3[nH]ncc3c2)C(c2ccc(F)c(C(=O)NCc3c(F)cccc3F)c2)NC(=O)N1` (stereo not shown) [Example E02, 4-(3-((2,6-difluorobenzyl)carbamoyl)-4-fluorophenyl)-N-(1H-indazol-5-yl)-6-methyl-2-oxo-1,2,3,4-tetrahydropyrimidine-5-carboxamide] as the molecule, how does the IC50 read?
The IC50 was 120 nM.
